Patent US20080057054A1, “Modulation of Phagocytosis in Neurons” (Vlaams Interuniversitair Instituut Voor Biotechnol, priority 2004, published 2008)

Target: T1, γ-secretase (Homo sapiens, UniProt P49768)
T1 construct: endogenous in cells; host or cells: HeLa cells
Assay: γ-secretase luciferase reporter assay (Gal4VP16 inducer constructs)
Type: cell-based
Set-up: dose or concentration left out as unconfirmed
Settings: lysed after 16 hrs; for nuclear translocation of the inducer fragment (luciferase activity), APP: APP-Gal4VP16 inducer in Hela cells; for nuclear translocation of the inducer fragment (luciferase activity), Notch: NotchΔE-Gal4VP16 inducer in Hela cells
Text: In wild-type hippocampal neurons, TLN localizes to the plasmalemma whereas in 30% of PS1−/− neurons, TLN additionally accumulates in large somatic structures, the identity of which remained elusive (Annaert et al., 2001). […] Therefore we tested whether TLN is a γ-secretase substrate. In 15 day old PS1−/− hippocampal cultures we could not detect any TLN C-terminal fragment (CTF) as apposed to APP-CTF that readily accumulate. Even upon Semliki Forest Virus (SFV)-induced overexpression, no TLN-CTF was detected. Since no putative mechanism of shedding of the TLN ectodomain is known, we generated a TLNΔE that could serve as a potential γ-secretase substrate. No intracellular domain fragments were however detected indicating the absence of γ-secretase cleavage. […] Release of a potential intracellular domain of TLN can be measured via the activity of luciferase. […] To investigate whether the TLN transmembrane domain could be a γ-secretase substrate in the context of the APP protein, we swapped the transmembrane regions of TLN and APP to create an APP/TLNTMR-chimaera. Even in this case no activity could be detected. Therefore we conclude that TLN is most likely not a γ-secretase substratum.
pSFV constructs encoding human APP, murine TLN and TLNΔE have been described (Annaert et al., 2001). APP and NotchΔE were cloned into the EcoRV site in front of the Gal4VP16 sequence in pIPAdApt vector. A construct encoding 10 aa of the ectodomain, the transmembrane and cytosolic domains of TLN was obtained by PCR and ligated in pGEMT containing the TLN signal peptide (SP). SP-TLNΔE was next cloned into pIPAdApt and GAL 4VP16 was inserted resulting in a pIPAdApt-SP-TLNΔE-Gal4-VP16 construct. For the APP/TLNTMR chimaera, the coding region for APP-TMR was replaced by a PCR fragment encoding the TLN-TMR. Luciferase assay. Hela cells were transfected with 200 ng pFRluc plasmid (UAS-responsive luciferase construct, Stratagene) and 200 ng inducer plasmid using Fugene ([…]) and after 16 hrs lysed and assayed (Victor2, PerkinElmer).

nuclear translocation of the inducer fragment (luciferase activity), APP	nuclear translocation of the inducer fragment (luciferase activity), Notch	Compound
strongly inhibited	strongly inhibited	C[C@H](NC(=O)Cc1cc(F)cc(F)c1)C(=O)N[C@H](C(=O)OC(C)(C)C)c1ccccc1 [DAPT]
strongly inhibited	strongly inhibited	CC(C)C[C@H](NC(=O)[C@H](Cc1ccccc1)C[C@@H](O)[C@H](Cc1ccccc1)NC(=O)OC(C)(C)C)C(=O)N[C@@H](Cc1ccccc1)C(N)=O [L685,458]
